Assay results taken from patent US20060058346A1, “Novel enantiomers of etrahydroisoquinoline derivatives and theirpharmaceutically acceptable salts, their preparations and pharmaceutical compositions” (priority 2002, published 2006).
Like-named read-outs stand apart in the source and are kept apart here.

What was measured:
[1] = Acute toxicity in rat (LD50); format: in vivo; conditions: Sprague-Dawley, in vivo
Method: Sprague-Dawley rats (six weeks) were used as test sample. Each group was comprised of two rats. […] The said emulsion was administered to two rats one times using intravenous injection and intraperitoneal injection.

[2] = system: RAW 264.7 macrophage cells; experiment: Nitric oxide production in macrophage cell stimulated by LPS (Griess); format: cell-based; conditions: for NO production by LPS in macrophage cell: LPS 1 μg/ml; for inhibition of production of NO: LPS-stimulated macrophage cell
Method: RAW 264.7 macrophage cells were plated on 100 mm culture dishes at a density of 1-2×10^5 cells. Thereafter, the said macrophage cell was incubated in DMEM medium containing 10% fetal calf serum (heat-inactivated), 100 U/ml penicillin, and […] streptomycin in a CO2 incubator. The said macrophage cell was incubated therein confluently. The said incubated macrophage cells were transferred to serum-free DMEM medium, and further incubated therein for about 24 hours. Thereafter, macrophage cells were stimulated with LPS (1 μg/ml) for about 8 hours. (In this progress, experimental group was divided into two groups, group to which the compound was administered, and group to which the compound was not.) Then, nitrite quantification was achieved by performing calorimetric reaction for produced nitrite with Griess reagent and then measuring absorbance at 550 nm, while using NaNO2 as a standard.

[3] = system: LPS-injected rat; experiment: Survival in LPS-injected rat; format: in vivo; conditions: for survival at 30 mg/kg than 15 mg/kg: LPS 20 mg/kg
Method: Rats (25˜30 g, ICR), originated from NIH cancer institute (Bethesda, Md., USA) were purchased from Korea Test Animal Corp. (Unsung, Korea). 20 mg/kg of LPS was injected to abdominal cavity of the rat. Thereafter, survival was observed every 24 hours for seven days, to investigate effect of enantiomer on the survival in LPS-injected rat. The compound represented by formula 3 to 8 was administered 30 min before the LPS injection.

[4] = system: rat with DIC and MOF induced by endotoxin; experiment: Endotoxin-induced DIC and multiple organ failure in rat; format: in vivo; conditions: for serum level of FDP compared with R-configuration: 10 mg/kg, FIG. 4
Method: Rats (Crj:CD(SD); 250±20 g) were used to test sample. Before the compound was administered, the rat was not fed. The compound was orally administered one time per day for two days in an amount of 10 mg˜25 mg/10 ml/kg/day. Distilled water (control group and LPS group) or enantiomer was administered to the rat repeatedly. After one hour, rat was anaesthetized with intramuscular injection of 50 mg/kg of pentobarbital. […] Thereafter, 50 mg/kg of pentobarbital was injected at 2 hour to the rat by intramuscular injection. Therefore, the rat was anaesthetized for all the experiment and operation.
The blood (2 ml for FDP and 6 ml for other variables) was collected from abdominal artery using a plastic syringe, into glass tube containing soy bean trypsin inhibitor and Bothrops atrox venom to measure FDP and into plastic tube containing 2.2% sodium citrate (1/10, volume/volume). The aggregated blood was centrifuged at 1200×g for 5 minutes two times. Before measurement of FDP, the supernatant was stored at freezer for at least 12 hours. Citrated blood was centrifuged at 2000×g for 30 minutes. The supernatant was used for measurement of fibrinogen and PT or APTT time. The aggregated blood collected in glass tube was disposed at the room temperature for 30 min, centrifuged to give the serum for measurement of AST and BUN.
Platelet from total citrated blood was counted by using automatic platelet counter (PLT-4, Texas International Lab.) PT or APTT time was measured by Beckton Dickenson BBL Fibrosystem (Coctkeysville, USA). FDP analysis was accomplished by using Thrombo-wellcotest kit. The said analysis was accomplished by up and down dilution method semi-quantitatively. Measurement of AST and BUN was accomplished by using Autobiochemical analyzer (Hitach 747, Japan).

[5] = system: left auricle muscle; experiment: Contractile force of left auricle muscle excised from rats; design: species or system rat; conditions: for Contractile Force of Auricle Muscles: vehicle control:100%
Method: Immediately after Sprague-Dawley rats (female or male) were anaesthetized with pentobarbital sodium (50 mg/kg, i.m.), the thorax was opened to excise the heart. The heart was submerged in Krebs solution, and left auricle muscle and right auricle muscle were then isolated. The left auricle muscle was placed in an organ bath for recording of contractile force, and applied with electrical field stimulation (voltage 10% higher than threshold voltage, 1 Hz frequency, 5 ms duration). In the case of right auricle muscle, which contracts spontaneously, the number of continuous beats was recorded. In this experiment, to measure contractile fore of the two auricle muscles, the organ bath was warmed to 37° C., and as a physiological solution, Krebs solution (119.8 mM NaCl, 4.6 mM KCl, 2.5 mM CaCl2, 1.2 mM MgCl2, 25 mM NaHCO3, 1.2 mM KH2PO4, 10 mM glucose, 1 mM EDTA, pH 7.4) was used. The Krebs solution (pH 7.4) was continuously saturated with a gas mixture of 95% O2 and 5% CO2. The auricle muscle was under a tension of 1 g, and Krebs solution was exchanged with fresh solution at intervals of 20 minutes while equilibrium was maintained during a recording period of 60 minutes.

[6] = system: rat PRP; experiment: Inhibition of platelet aggregation in rat PRP; format: cell-based; conditions: for IC50: Platelet, rat PRP; for inhibitory effect on epinephrine-induced platelet aggregation, times as strong as R-enantiomer: S versus R; for inhibitory effect on epinephrine-induced platelet aggregation, times as strong as racemic mixture: S versus racemic mixture; for inhibition of platelet aggregation induced by ADP: even at the concentration as high as 1×10^−3 M
Method: Male rat (weighing 200±20 g) was anaesthetized with ether. The blood (nine volumes) was collected from heart using a plastic syringe containing 2.2% sodium citrate (one volume). The collected blood was centrifuged at 200×g for 10 minutes to give supernatant platelet-rich plasma (PRP). The residue was centrifuged again at 700×g for 30 minutes, giving platelet-poor plasma (PPP) for experiment. We used a platelet analyzer to count the number of platelet of the PRP. PRP was diluted with physiological saline solution to prepare solution containing platelets in an amount of 400-450×10^6/ml. The inhibitory effects of the compound represented by formulas 3 to 8 was evaluated by platelet aggregation analyzer, and the inhibitory effect of each compound is given as % below. That is, after PRP was incubated for 3 minutes at 37° C., the compounds or a carrier was added thereto, and after 1 min, platelet aggregation-inducing agent such as ADP, collagen, arachidonic acid (AA), U46619 or epinephrine was added thereto, followed by investigation of turbidity caused by aggregation of platelets. % Inhibition=A−B/A×100 [arithmetic formula 1] • (A: Platelet aggregation rate in group treated with an aggregation-inducing agent; • B: Platelet aggregation rate in group treated with both an aggregation-inducing agent and the enantiomers simultaneously)

[7] = ip, single intraperitoneal injection, read-out: LD50, Intraperitioneal injection
[8] = single intravenous injection, read-out: LD50, Intravenous injection
[9] = 15 mg/kg compound 30 min before LPS 20 mg/kg i.p.
[10] = ADP 2 − 5 × 10^−6 M, read-out: IC50 platelet aggregation, ADP
[11] = U46619 1.5 × 10^−6 M with threshold collagen, read-out: IC50 platelet aggregation, U46619
[12] = arachidonic acid 1 − 4 × 10^−5 M with threshold collagen, read-out: IC50 platelet aggregation, AA
[13] = collagen 2 − 5 × 10^−6 g/ml, read-out: IC50 platelet aggregation, collagen
[14] = epinephrine 1 − 4 × 10^−6 M with threshold collagen, read-out: IC50 platelet aggregation, Epinephrine
[15] = 30 mg/kg compound 30 min before LPS 20 mg/kg i.p.

SMILES | LD50 [1, 7] [mg/kg] | LD50 [1, 8] [mg/kg] | NO production by LPS in macrophage cell ([2]; compound 10 μM) [µM] | NO production by LPS in macrophage cell ([2]; compound 50 μM) [µM] | NO production by LPS in macrophage cell ([2]; compound 100 μM) [µM] | survival after six days [3, 9] [%] | serum level of AST ([4]; LPS 15 mg/kg i.v. 4 hours) | Contractile Force of Auricle Muscles ([5]; 1 × 10^−4 M) [%] | Contractile Force of Auricle Muscles ([5]; 1 × 10^−5 M) [%] | Contractile Force of Auricle Muscles ([5]; 1 × 10^−6 M) [%] | Contractile Force of Auricle Muscles ([5]; 1 × 10^−7 M) [%] | Contractile Force of Auricle Muscles ([5]; 3 × 10^−5 M) [%] | Contractile Force of Auricle Muscles ([5]; 3 × 10^−6 M) [%] | Contractile Force of Auricle Muscles ([5]; 3 × 10^−7 M) [%] | IC50 [6, 10] [µM] | IC50 [6, 11] [µM] | IC50 [6, 12] [µM] | IC50 [6, 13] [µM] | IC50 [6, 14] [µM] | inhibition of production of NO [2] | also measured
Oc1ccc(C[C@@H]2NCCc3cc(O)c(O)cc32)cc1 [Formula 3, (S)-6,7-Dihydroxy-1-(p-hydroxyphenylmethyl)-1,2,3,4-tetrahydroisoquinoline] | 450 | 154 | 30.5 | 22.3 | 18.2 | 80 | at the normal level | 300 | 300 | 250 | 140 | 300 | 290 | 180 | > 1000 | 25 | 9.1 | 450 | 1.6 | – | survival at 30 mg/kg than 15 mg/kg [3]: increased; serum level of FDP compared with R-configuration [4]: lower; platelet concentration compared with R-configuration ([4]; FIG. 2): higher; serum level of BUN, formula 3 versus formula 4 ([4]; LPS 15 mg/kg i.v. 4 hours): no difference; inhibitory effect on epinephrine-induced platelet aggregation, times as strong as R-enantiomer [6]: about nine times as strong; inhibitory effect on epinephrine-induced platelet aggregation, times as strong as racemic mixture [6]: about five times as strong; inhibition of platelet aggregation induced by ADP [6]: did not inhibit
Oc1ccc(C[C@H]2NCCc3cc(O)c(O)cc32)cc1 [Formula 4, (R)-6,7-Dihydroxy-1-(p-hydroxyphenylmethyl)-1,2,3,4-tetrahydroisoquinoline] | 262 | 95 | 20.1 | 10.3 | 8.2 | 60 | at the normal level | 300 | 200 | 130 | 100 | 250 | 160 | 100 | ≥ 1000 | 15 | 11 | 300 | 14 | inhibited production of NO weakly than S-enantiomer did | survival after six days [3, 15]: 67%; serum level of BUN, formula 3 versus formula 4 ([4]; LPS 15 mg/kg i.v. 4 hours): no difference; effect on contractile force of auricle muscles [5]: increased; inhibition of platelet aggregation induced by ADP [6]: did not inhibit
Oc1cc2c(cc1O)[C@H](Cc1cccc3ccccc13)NCC2 [Formula 5] | 397 | 172 | 21.3 | 14.8 | 14.2 | 100 | – | 700 | 630 | 450 | 200 | 660 | 550 | 280 | 240 | 16 | 5.6 | 69 | 0.38 | strongly inhibited production of NO | survival after six days [3, 15]: 100%; survival at 30 mg/kg than 15 mg/kg [3]: increased; platelet concentration, higher than with R-configuration ([4]; 10 mg/kg oral, LPS 15 mg/kg i.v. 4 hours): 20%; serum level of FDP compared with R-configuration [4]: lower; effect on contractile force of auricle muscles [5]: strongly increased; inhibitory effect on epinephrine-induced platelet aggregation, times as strong as R-enantiomer [6]: about six times as strong; inhibitory effect on epinephrine-induced platelet aggregation, times as strong as racemic mixture [6]: about five times as strong
Oc1cc2c(cc1O)[C@@H](Cc1cccc3ccccc13)NCC2 [Formula 6, (R)-6,7-Dihydroxy-1-(α-naphthylmethyl)-1,2,3,4-tetrahydroisoquinoline] | 230 | 88 | 36 | 34 | 38 | 73 | at the normal level | 50 | 50 | 75 | 100 | 50 | 50 | 87 | 540 | 20 | 11 | 140 | 2.4 | never or slightly inhibited production of NO | survival after six days [3, 15]: 93%; effect on contractile force of auricle muscles [5]: no effect
